Test results taken from PubChem BioAssay AID1117361 (Southern Research Institute, 2015).

The molecules below were run against Protein Tat (Human immunodeficiency virus type 1 group M subtype B (isolate HXB2)) (UniProt P04608) (assay: inhibitors of Tat binding to TAR RNA, dose response, counter-screen for Vif-APOBEC3G degradation inhibitor project, biochemical, fluorescence polarization, FAM-labeled TAR RNA (AID 1117361)).
Sequence of Protein Tat (Human immunodeficiency virus type 1 group M subtype B (isolate HXB2)) (P04608 whole entry, looked up): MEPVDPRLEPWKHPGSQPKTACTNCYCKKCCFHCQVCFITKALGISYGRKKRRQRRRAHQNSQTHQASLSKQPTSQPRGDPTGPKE

First: N#CC1=C(N)C2=C(N3CCCCC3)CCCC2C1(C#N)C#N (stereo not drawn)
Second: O=C(Nc1ccccc1N1CCCC1)c1ccc(Br)o1
The IC50 of the first is 11-fold lower: 5.45 µM for the first, 59.6 µM for the second. The first is the more potent here.

Compared with `Cc1ccc(NC(=O)CN(C)C(=O)c2cc(-c3ccco3)nc3ccccc23)cc1`, `O=C(NC(=S)Nc1cccc(S(=O)(=O)NC2=NCCC2)c1)c1cc(-c2ccco2)nc2ccccc12` is 8.6-fold lower in IC50: 69.2 µM for the first, 8.04 µM for the second. The second is the more potent here.

`O=c1[nH]nc(CNc2ccc(O)cc2)c2ccccc12` and `COc1cc(CNc2ccc(O)cc2)cc(Br)c1OCc1ccccc1` are within 1.5-fold of each other in IC50: 33.7 µM for the first, 34.5 µM for the second.

`COc1ccc2ccccc2c1C1CC(=O)N2CN(Cc3ccco3)CSC2=C1C#N` (stereo not drawn) and `CN(CCC#N)C(=O)COC(=O)c1c2c(nc3ccccc13)/C(=C\c1ccco1)CC2` are within 1.5-fold of each other in IC50: 67.7 µM for the first, 79.8 µM for the second.

Going from `CCC(C)C(NC(=O)[C@@H](NC(=O)c1ccccc1F)C(C)C)C(=O)OC` (stereo partly drawn) to `COC(=O)c1ccc(C(=O)OC)c(NC(=O)Cc2cccs2)c1`, the IC50 rises from 30.7 µM to 64.8 µM (2.1-fold). The first is the more potent here.

Compared with `CNc1ccccc(-c2ccc3cc4c(cc3n2)OCO4)c1=O`, `COc1ccc2c(c1)C(=O)c1ccccc1CO2` is 21-fold higher in IC50: 2.22 µM for the first, 46.3 µM for the second.

Compared with `CC(=O)C1=C(C)NC(C)=C(C(C)=O)C1c1cccs1`, `Cc1cc(NC(=O)Cc2cccs2)no1` is 1.6-fold lower in IC50: 91.4 µM for the first, 55.9 µM for the second.

Going from `O=[n+]1c2c(n([O-])c3cc(Cl)ccc31)CCCC2` to `N#Cc1c(-c2ccco2)c2c([nH]c1=S)CCCC2`, the IC50 falls from 42.9 µM to 8.34 µM (5.1-fold).

Compared with `NC(=O)c1c(NC(=O)c2ccc(S(=O)(=O)N3CCOCC3)cc2)sc2c1CCCCC2`, `O=C(CN1CCN(S(=O)(=O)c2ccc(Cl)cc2)CC1)Nc1ccc2c(c1)OCCO2` is 45-fold lower in IC50: 58.3 µM for the first, 1.31 µM for the second.

`Cc1ccc(C(=O)Nc2ccc(O)c(C(=O)O)c2)o1` and `O=C(O)Cc1ccc(N=Nc2c(O)c(C(=O)O)cc3ccccc23)cc1` are within 1.5-fold of each other in IC50: 19.4 µM for the first, 27.5 µM for the second.

Going from `Cc1ccc(C(=O)N/N=C\c2cc(Br)c(Br)o2)cn1` to `CCn1cc(Br)c(C(=O)Nc2cccc(SC)c2)n1`, the IC50 falls from 2.34 µM to 1.44 µM (1.6-fold). The second is the more potent here.

Going from `O=[N+]([O-])c1cc(CN2CCOCC2)c2cccnc2c1O` to `CCCN1C(=O)S/C(=C\c2ccc(N3CCOCC3)cc2C)C1=O`, the IC50 falls from 15.8 µM to 1.92 µM (8.2-fold). The second is the more potent here.

Going from `O=C(N/N=C/C(Br)=C/c1ccccc1)c1cc(-c2ccco2)[nH]n1` to `Cc1ccccc1NC(=O)CSc1nnc(-c2ccco2)c(-c2ccco2)n1`, the IC50 falls from 8.53 µM to 2.73 µM (3.1-fold).

Going from `Cc1ccccc1NC(=O)c1c(C)[nH]c(=S)c(C#N)c1-c1ccco1` to `CC(=O)c1sc2nc(-c3ccco3)ccc2c1N`, the IC50 falls from 8.91 µM to 4.64 µM (1.9-fold). The second is the more potent here.

`O=C(O)c1ccc(COc2c(F)c(F)c(F)c(F)c2F)o1` and `COC(=O)CCCC(=O)Nc1c(F)c(F)c(F)c(F)c1F` are within 1.5-fold of each other in IC50: 90.6 µM for the first, 78.2 µM for the second.

Going from `O=C1CC(c2ccco2)CC(O)=C1C=Nc1cc(Cl)cc(Cl)c1` (stereo not drawn) to `O=C1CC(c2ccco2)CC(O)=C1C=Nc1cc(Cl)ccc1O` (stereo not drawn), the IC50 rises from 9.58 µM to 20.5 µM (2.1-fold). The first is the more potent here.

Compared with `Cc1ccc(-c2ccc(CCC(=O)O)n2NC(N)=S)cc1`, `C/C(=C\C(=O)c1ccc(C)cc1)Nc1cccc(O)c1` is 1.7-fold lower in IC50: 17.8 µM for the first, 10.4 µM for the second. The second is the more potent here.

Compared with `COc1cc(CNCCc2ccc(F)cc2)ccc1OCc1ccc(Cl)nc1`, `CCOc1cccc(CNc2ccc(O)cc2)c1OCc1ccccc1Cl` is 6.4-fold higher in IC50: 9.8 µM for the first, 63 µM for the second.

Going from `O=C(O)CCCNc1cc(N2CCC3(CC2)OCCO3)c2noc3c2c1C(=O)c1ccccc1-3` to `O=C(/C=C/c1ccco1)NC(=S)Nc1ccccc1N1CCOCC1`, the IC50 rises from 3.59 µM to 25.8 µM (7.2-fold).

First: CN(C)S(=O)(=O)c1cccc(NC(=S)N/N=C/c2ccc(O)c(O)c2O)c1
Second: Oc1cccc(C=NCc2ccccc2)c1O
The IC50 of the first is 3.6-fold higher: 23.2 µM for the first, 6.47 µM for the second.

`CCc1cc2cc(C)cc(C)c2nc1SCC(=O)N1CCN(C(=O)c2ccco2)CC1` and `O=C(O)CSc1c2c(nc3cc(C(=O)Nc4cccc(C(F)(F)F)c4)ccc13)CCC2` are within 1.5-fold of each other in IC50: 39.3 µM for the first, 56.2 µM for the second.

Going from `COc1cc(C(=O)NCc2nnc(SCC(=O)Nc3nc4ccc(C)cc4s3)o2)cc(OC)c1OC` to `COC(=O)CSc1nnc(CNC(=O)Cc2ccccc2)n1C`, the IC50 falls from 35.9 µM to 1.43 µM (25-fold).

Going from `O=C(COC(=O)c1ccccc1)Nc1ncc([N+](=O)[O-])s1` to `O=C(O)c1cccc2c1NC(C(=O)O)C1CC(Sc3ccccc3[N+](=O)[O-])C(Cl)C21` (stereo not drawn), the IC50 falls from 20.5 µM to 1.91 µM (11-fold). The second is the more potent here.

First: O=C(NCCO)c1ccc2nc(-c3ccco3)c(-c3ccco3)nc2c1
Second: Cc1cc(C)c([N+](=O)[O-])cc1-c1ccc(/C=N/c2c(-c3ccco3)nc3ccccn23)o1
The IC50 of the first is 7.8-fold lower: 7.34 µM for the first, 57.5 µM for the second.

Going from `Cc1ccc(C2C(C#N)=C(N)Oc3c2oc(CO)cc3=O)o1` (stereo not drawn) to `Cc1cc(-c2cc(-c3ccc(Cl)cc3)nc(N)c2C#N)co1`, the IC50 rises from 5.77 µM to 83.6 µM (14-fold).

Going from `CC1(C)N([O-])c2cc([N+](=O)[O-])ccc2[N+]1=O` to `CC1=NN(C(N)=S)C(=O)C1N=Nc1cccc([N+](=O)[O-])c1` (stereo not drawn), the IC50 rises from 61.3 µM to 99.2 µM (1.6-fold). The first is the more potent here.

Compared with `O=[N+]([O-])c1c(NCCCO)cc(SCc2ccco2)c2nonc12`, `CCOc1cccc(CNCCNC(=O)c2nonc2N)c1` is 5.1-fold higher in IC50: 16.5 µM for the first, 84.2 µM for the second.

`CCOC(=O)c1cnn2c(N)c(C#N)nnc12` and `CC(C)CC(=O)Nc1nnc(-c2ccco2)s1` are within 1.5-fold of each other in IC50: 45.7 µM for the first, 53.8 µM for the second.

Going from `COC(=O)c1ccccc1-c1c2ccc(=N)cc-2oc2cc(N)ccc12` to `CC1(OC(=O)CCc2ccccc2)C(=O)C=C2C=C(c3ccsc3)OC=C2C1=O` (stereo not drawn), the IC50 rises from under 0.19 µM to 65.8 µM.

`O=C(CCS(=O)(=O)c1ccc(Br)cc1)NC1CCCC1` and `CCOc1ccc(NCC2CCOC(C)(C)C2)cc1` (stereo not drawn) are within 1.5-fold of each other in IC50: 50.8 µM for the first, 64.8 µM for the second.

First: O=C(CCCCCN1C(=O)CCC1=O)Nc1ccc(Cl)c(C(F)(F)F)c1
Second: Cc1ccc(NC(=O)CN2C(=O)N/C(=C/c3ccco3)C2=O)cc1
The IC50 of the first is 2.2-fold lower: 16.4 µM for the first, 36 µM for the second.

Compared with `COC(=O)c1ccc(=O)c2nc3/c(=C/O)c(O)cc(=O)c3[nH]c12`, `CNc1ccc(Br)cc(C(=O)/C=C/c2ccc(OC)cc2OC)c1=O` is 2.6-fold higher in IC50: 20.3 µM for the first, 52 µM for the second.

Going from `CCC(c1nnnn1C(C)(C)CC)N(CCCO)Cc1cc2cc(C)cc(C)c2[nH]c1=O` (stereo not drawn) to `Cc1cc(-c2nc3c4c5c(sc4[nH]c(=O)n3n2)CCC5)c(C)o1`, the IC50 rises from 1.88 µM to 3.66 µM (1.9-fold). The first is the more potent here.

Going from `O=C1/C(=C/c2ccco2)SC(=S)N1C1CCS(=O)(=O)C1` (stereo not drawn) to `O=C1/C(=C\c2ccco2)SC(=S)N1Cc1ccccc1`, the IC50 rises from 5.05 µM to 17.5 µM (3.5-fold). The first is the more potent here.

Compared with `CC(C)CNC1=CC(=O)CC(c2ccco2)C1` (stereo not drawn), `CSc1ccc(/C=N/Nc2cccc(C(=O)O)c2)cc1` is 5.4-fold lower in IC50: 31.3 µM for the first, 5.81 µM for the second.

`O=C(CC1C(=O)NCCN1Cc1ccc(F)cc1)NCCN1CCCc2ccccc21` (stereo not drawn) and `COC(=O)/C(=N/Nc1ccccc1C)N1CCCc2ccccc21` are within 1.5-fold of each other in IC50: 22.1 µM for the first, 29.2 µM for the second.

Going from `CC(C)(CS(=O)(=O)[O-])NC(=O)CC[N+](C)(C)CCO` to `CCC(=O)N1N=C(c2ccc(NS(C)(=O)=O)cc2)CC1c1ccc(C)cc1` (stereo not drawn), the IC50 rises from 17.5 µM to 88.8 µM (5.1-fold).

First: CCN1C(=O)/C(=C\c2ccc([N+](=O)[O-])s2)C(=O)NC1=S
Second: N#C/C(=C\c1ccc([N+](=O)[O-])o1)C(=O)Nc1ccc(F)cc1
The IC50 of the first is 14-fold lower: 4.07 µM for the first, 55.6 µM for the second.

First: O=C(O)C1OC(Oc2c(-c3ccc(O)c(O)c3)oc3cc(O)cc(O)c3c2=O)C(O)C(O)C1O (stereo not drawn)
Second: COc1cc(/C=C/C=C2/CC/C(=C/C=C/c3ccc(O)c(OC)c3)C2=O)ccc1O
The IC50 of the first is 21-fold lower: 2.12 µM for the first, 44.8 µM for the second. The first is the more potent here.

First: Cc1c(Br)c(O)c(Br)c2sc(=O)oc12
Second: CNc1ccc(Br)cc(C(=O)/C=C/c2cc(OC)ccc2OC)c1=O
The IC50 of the first is 2.6-fold higher: 25.3 µM for the first, 9.75 µM for the second.

Going from `CCOc1cc(N2CCOCC2)c(OCC)cc1NC(C)C(=O)N1CCN(CC)CC1` (stereo not drawn) to `Cc1cc(C(=O)CCl)c(C)n1-c1c(C)n(C)n(-c2ccccc2)c1=O`, the IC50 falls from 78.8 µM to 20.3 µM (3.9-fold).

Molecule `CC(=O)Nc1ccc(C=C(C#N)c2ccc(C)cc2)cc1` has an IC50 of 24.7 µM.
